In patent US12030891B2, “Xanthonic compounds and their use as antifouling agents” (CIIMAR—CENTRO INTERDISCIPLINAR DE INVESTIGACAO MARINHA E …, priority 2018, dated 2024):

Columns and labels:
[1] = Leaching test of antifoulant from coatings (adapted from ISO15181); format: physicochemical; details: PU coating, 45 days submerged in artificial seawater
[2] = Luminescent Vibrio fischeri ecotoxicity assay (ISO11348); format: cell-based; details: luminescent Vibrio fischeri bacteria (NRRL-B-11177), contact time of 30 min, read-out: LC50 (inhibition of light radiation emitted)
Method: Luminescent Vibrio fischeri ecotoxicity assessment (ISO11348) was performed by IK4 TEKNIKER accordingly to the EU hazard assessment of substances and European Ecolabel (ISO 113482). Luminescent Vibrio fischeri bacteria test (NRRL-B-11177) was used as a standard test to evaluate the ecotoxicity of the most promising AF compounds. Vibrio fischeri bacteria from HACH-LANGE GmbH were grown in laboratory in standard conditions according to guidelines and exposed to a dilution serial of each compound (1000, 500, 250, 125, 62.5 mg/L). After 5, 15 and 30 min of exposure, the light emitted as a by-product of Vibrio fischeri cellular respiration was measured at 490 nm. Any inhibition of cellular activity results in a decreased rate of respiration and a corresponding decrease in the rate of luminescence. The decrease of bacterial luminescence measured after 5, 15 or 30 min of exposition was used as test endpoint. Luminescence was measured using a LUMIStox photometer from DR LANGE, after a contact time of 15 min and 30 min at 15±1° C., taking into account a correction factor, fk, which is a measure of intensity change of control samples during the exposure time.
The pH of all samples was within the interval 6.0-8.5. A 2% solution of sodium chloride (NaCl) in deionized water (20 g/L) was used as dilution medium and K2Cr2O7 11.3 μg·mL^−1) was used as positive control.

[3] = tested on: Mytilus galloprovincialis larvae; assay: Anti-settlement bioassay on xanthonic based marine coatings; format: in vivo; details: for reduction in the larvae settlement: incorporated in polyurethane (PU) marine paint at 2 wt %; for reduction of larval settlement: polyurethane based marine paint coating (1.7 wt. %)
Method: None instead, and depending on the xanthonic chemical functionalities and density, minor adjustments on those proportions were performed, in order to maintain the main coatings properties (e.g. curing time and adhesion). In addition, and to promote the compatibility and homogeneity of the antifoulants in the corresponding polymeric formulations, a prior dissolution step, in accurate pure and dehumidified organic solvents, may be comprised, followed by its addition and blending to the paint components system. The selection and content of the organic solvent must also rely on its compatibility with the components of each polymeric system.
The antifouling effectiveness of xanthonic based marine coating formulations was assessed by an in vivo anti-settlement bioassay on coated culture multiwell plates, using Mytilus galloprovincialis adhesive mussel plantigrades larvae as target species.

[4] = tested on: Phaeodactylum tricornutum; assay: Algae growth inhibition test (OECD 201); format: cell-based
Method: This test was executed using […], which contains all the material necessary to perform growth inhibition tests with the marine diatom Phaeodactylum Tricornutum. The species of alga Phaeodactylum Tricornutum, were incubated with the testing leaching samples, for 72 hours, in disposable cells of 10 cm path-length. […] This terminology is used instead of the standard EC50 when the test material is not completely soluble at the test treat rates.

Artemia salina = Artemia salina lethality bioassay; format: in vivo; details: even at 50 μM, 48 h of exposure
Method: General toxicity to non-target species was evaluated using the brine shrimp (Artemia salina) lethality test (Meyer et al., 1982). A. salina cysts were allowed to hatch in nutrient-enriched seawater for approximately 48 hours at 25° C. Newly hatched instar I nauplii were harvested for toxicity test performed in 96-wells microplates with eight replicates per condition and 15-20 nauplii per well. Test solutions of the most promising sulfated antifouling compounds (50 and 25 μM) were prepared in filtered seawater. K2Cr2O7 (13.6 μM) was included as positive control and DMSO as negative control. Percentage of mortality was determined at 48 h of exposure.

Daphnia magna = assay: Daphnia acute immobilization test (OECD 202); format: in vivo
Method: This test was performed using DAPHTOXKIT F MAGNATM. Daphnia magna are commonly known as water fleas, due to their jumping swimming resemblance to the movement of the fleas. Its short life span and reproductive capabilities make it an ideal organism for analytical use.
The swimming capability of Daphnia Magna was assessed after 48 hours of exposure to the diluted testing samples. The Daphnia were bred in the laboratory and should be no more than 24 hours old. The number of immobilized Daphnia was registered at 24 hours and 48 hours, for the calculation of EL50 and comparison with the control values. The EL50 is the effective concentration of the sample that is expected to cause immobilization to 50% of Daphnia.
Note that for this toxicity test, the leaching was obtained only from the WAF method test using the samples and Daphnia's mineral medium as […] because standard seawater is harmful to Daphnia.

O=c1c2ccccc2oc2c(O)c(O)ccc12 [3,4dOHx, 3,4-dihydroxy-9H-xanthen-9-one]
incorporated antifoulant leached out of the polymeric matrix [1]: 0.008%
50% inhibition of luminescence concentration (EC50) at 30 min [2]: > 750 mg/L
reduction in the larvae settlement ([3]; after 40 h): about 80%
reduction in the larvae settlement ([3]; after the first 15 h): 55%
EL50 (72 h) alga growth inhibition [4]: > 100 µg/mL
toxicity to Artemia salina nauplii (Artemia salina): non-toxic effects

O=C(O)COc1ccc2c(=O)c3ccccc3oc2c1OCC(=O)O [D3,4 COOHX, 2,2′-((9-oxo-9H-xanthene-3,4-diyl)bis(oxy))diacetic acid]
toxicity to Artemia salina nauplii (Artemia salina): non-toxic effects

COC(=O)COc1ccc2c(=O)c3ccccc3oc2c1OCC(=O)OC [D3,4 OCH3X, dimethyl 2,2′-((9-oxo-9H-xanthene-3,4-diyl)bis(oxy))diacetate]
toxicity to Artemia salina nauplii (Artemia salina): non-toxic effects

COc1cc(C=O)c2c(=O)c3ccccc3oc2c1OC [XA11, 3,4-dimethoxy-9-oxo-9H-xanthene-1-carbaldehyde]
toxicity to Artemia salina nauplii (Artemia salina): non-toxic effects

COc1cc(CO)c2c(=O)c3ccccc3oc2c1OC [XA12, 1-(hydroxymethyl)-3,4-dimethoxy-9H-xanthen-9-one]
toxicity to Artemia salina nauplii (Artemia salina): non-toxic effects

COc1cc(C)c2c(=O)c3ccccc3oc2c1OC [XA13, 3,4-dimethoxy-1-methyl-9H-xanthen-9-one]
reduction of larval settlement ([3]; after 40 h): 29%
reduction of larval settlement ([3]; first 15 h): 50%

COc1cc(C(Br)Br)c2c(=O)c3ccccc3oc2c1OC [XA14, 1-(dibromomethyl)-3,4-dimethoxy-9H-xanthen-9-one]
toxicity to Artemia salina nauplii (Artemia salina): non-toxic effects

COc1cc(CNCCN2CCOCC2)c2c(=O)c3ccccc3oc2c1OC [XA15, 3,4-dimethoxy-1-(((2-morpholinoethyl)amino)methyl)-9H-xanthen-9-one]
toxicity to Artemia salina nauplii (Artemia salina): non-toxic effects

COc1cc(CN2CCN(CCO)CC2)c2c(=O)c3ccccc3oc2c1OC [XA18, 1-((4-(2-hydroxyethyl)piperazin-1-yl)methyl)-3,4-dimethoxy-9H-xanthen-9-one]
toxicity to Artemia salina nauplii (Artemia salina): non-toxic effects

COc1cc(CN2CCc3c(N)cccc3C2)c2c(=O)c3ccccc3oc2c1OC [XA20, 1-((5-amino-3,4-dihydroisoquinolin-2(1H)-yl)methyl)-3,4-dimethoxy-9H-xanthen-9-one]
EL50 (48 h) immobility (Daphnia magna): > 300 µg/mL
50% inhibition of luminescence concentration (EC50) at 30 min [2]: > 300 mg/L
EL50 (72 h) alga growth inhibition [4]: > 125 µg/mL

COc1cc(CN2CCCCC2)c2c(=O)c3ccccc3oc2c1OC [XA22, 3,4-dimethoxy-1-(piperidin-1-ylmethyl)-9H-xanthen-9-one]
toxicity to Artemia salina nauplii (Artemia salina): non-toxic effects

CC1(C)CCc2cc3c(=O)c4ccccc4oc3c(O)c2O1 [XP13, 12-hydroxy-2,2-dimethyl-3,4-dihydro-2H,6H-pyrano[3,2-b]xanthen-6-one]
50% inhibition of luminescence concentration (EC50) at 30 min [2]: > 237 mg/L
toxicity to Artemia salina nauplii (Artemia salina): non-toxic effects
